# Legend:
# Assay in all cases: MBC (minimum bactericidal concentration) test in Wash NEXT reagent
# Format in all cases: cell-based
# [1] = system: Pseudomonas aeruginosa (L)
# [2] = system: Pseudomonas aeruginosa (AY)
# [3] = system: Pseudomonas fluorescens (D)
compound,measurement,setting,value
"Cc1cc(NS(=O)(=O)c2ccc(N)cc2)no1 [Sulfamethoxazole, sulfamethoxazole]",MBC test growth score,"[1]; 10% preservative, 8 hour",+
same,MBC test growth score,"[1]; 10% preservative, 24 hour",+
same,MBC test growth score,"[1]; 10% preservative, 48 hour",+
same,MBC test growth score,"[1]; 10% preservative, 72 hour",+
same,MBC test growth score,"[1]; 20% preservative, 8 hour",+
same,MBC test growth score,"[1]; 20% preservative, 24 hour",+
same,MBC test growth score,"[1]; 20% preservative, 48 hour",+
same,MBC test growth score,"[1]; 20% preservative, 72 hour",+
same,MBC test growth score,"[1]; 30% preservative, 8 hour",+
same,MBC test growth score,"[1]; 30% preservative, 24 hour",+
same,MBC test growth score,"[1]; 30% preservative, 48 hour",+
same,MBC test growth score,"[1]; 30% preservative, 72 hour",+
same,MBC test growth score,"[1]; 40% preservative, 8 hour",+
same,MBC test growth score,"[1]; 40% preservative, 24 hour",+
same,MBC test growth score,"[1]; 40% preservative, 48 hour",+
same,MBC test growth score,"[1]; 40% preservative, 72 hour",+
same,MBC test growth score,"[1]; 50% preservative, 8 hour",+
same,MBC test growth score,"[1]; 50% preservative, 24 hour",+
same,MBC test growth score,"[1]; 50% preservative, 48 hour",+
same,MBC test growth score,"[1]; 50% preservative, 72 hour",+
same,MBC test growth score,"[1]; 60% preservative, 8 hour",+
same,MBC test growth score,"[1]; 60% preservative, 24 hour",+
same,MBC test growth score,"[1]; 60% preservative, 48 hour",+
same,MBC test growth score,"[1]; 60% preservative, 72 hour",+
same,MBC test growth score,"[1]; 70% preservative, 8 hour",+
same,MBC test growth score,"[1]; 70% preservative, 24 hour",+
same,MBC test growth score,"[1]; 70% preservative, 48 hour",+
same,MBC test growth score,"[1]; 70% preservative, 72 hour",+
same,MBC test growth score,"[1]; 80% preservative, 8 hour",+
same,MBC test growth score,"[1]; 80% preservative, 24 hour",+
same,MBC test growth score,"[1]; 80% preservative, 48 hour",+
same,MBC test growth score,"[1]; 80% preservative, 72 hour",+
same,MBC test growth score,"[1]; 90% preservative, 8 hour",+
same,MBC test growth score,"[1]; 90% preservative, 24 hour",+
same,MBC test growth score,"[1]; 90% preservative, 48 hour",+
same,MBC test growth score,"[1]; 90% preservative, 72 hour",+
same,MBC test growth score,"[1]; 100% preservative, 8 hour",+
same,MBC test growth score,"[1]; 100% preservative, 24 hour",+
same,MBC test growth score,"[1]; 100% preservative, 48 hour",+
same,MBC test growth score,"[1]; 100% preservative, 72 hour",+
same,MBC test growth score,"[2]; 10% preservative, 8 hour",+
same,MBC test growth score,"[2]; 10% preservative, 24 hour",+
same,MBC test growth score,"[2]; 10% preservative, 48 hour",+
same,MBC test growth score,"[2]; 10% preservative, 72 hour",+
same,MBC test growth score,"[2]; 20% preservative, 8 hour",+
same,MBC test growth score,"[2]; 20% preservative, 24 hour",+
same,MBC test growth score,"[2]; 20% preservative, 48 hour",+
same,MBC test growth score,"[2]; 20% preservative, 72 hour",+
same,MBC test growth score,"[2]; 30% preservative, 8 hour",+
same,MBC test growth score,"[2]; 30% preservative, 24 hour",+
same,MBC test growth score,"[2]; 30% preservative, 48 hour",+
same,MBC test growth score,"[2]; 30% preservative, 72 hour",+
same,MBC test growth score,"[2]; 40% preservative, 8 hour",+
same,MBC test growth score,"[2]; 40% preservative, 24 hour",+
same,MBC test growth score,"[2]; 40% preservative, 48 hour",+
same,MBC test growth score,"[2]; 40% preservative, 72 hour",+
same,MBC test growth score,"[2]; 50% preservative, 8 hour",+
same,MBC test growth score,"[2]; 50% preservative, 24 hour",+
same,MBC test growth score,"[2]; 50% preservative, 48 hour",+
same,MBC test growth score,"[2]; 50% preservative, 72 hour",+
same,MBC test growth score,"[2]; 60% preservative, 8 hour",+
same,MBC test growth score,"[2]; 60% preservative, 24 hour",+
same,MBC test growth score,"[2]; 60% preservative, 48 hour",+
same,MBC test growth score,"[2]; 60% preservative, 72 hour",+
same,MBC test growth score,"[2]; 70% preservative, 8 hour",+
same,MBC test growth score,"[2]; 70% preservative, 24 hour",+
same,MBC test growth score,"[2]; 70% preservative, 48 hour",+
same,MBC test growth score,"[2]; 70% preservative, 72 hour",+
same,MBC test growth score,"[2]; 80% preservative, 8 hour",+
same,MBC test growth score,"[2]; 80% preservative, 24 hour",+
same,MBC test growth score,"[2]; 80% preservative, 48 hour",+
same,MBC test growth score,"[2]; 80% preservative, 72 hour",+
same,MBC test growth score,"[2]; 90% preservative, 8 hour",+
same,MBC test growth score,"[2]; 90% preservative, 24 hour",+
same,MBC test growth score,"[2]; 90% preservative, 48 hour",+
same,MBC test growth score,"[2]; 90% preservative, 72 hour",+
same,MBC test growth score,"[2]; 100% preservative, 8 hour",+
same,MBC test growth score,"[2]; 100% preservative, 24 hour",+
same,MBC test growth score,"[2]; 100% preservative, 48 hour",+
same,MBC test growth score,"[2]; 100% preservative, 72 hour",+
same,MBC test growth score,"[3]; 10% preservative, 8 hour",+
same,MBC test growth score,"[3]; 10% preservative, 24 hour",+
same,MBC test growth score,"[3]; 10% preservative, 48 hour",+/−
same,MBC test growth score,"[3]; 10% preservative, 72 hour",+/−
same,MBC test growth score,"[3]; 20% preservative, 8 hour",+
same,MBC test growth score,"[3]; 20% preservative, 24 hour",+
same,MBC test growth score,"[3]; 20% preservative, 48 hour",+/−
same,MBC test growth score,"[3]; 20% preservative, 72 hour",+/−
same,MBC test growth score,"[3]; 30% preservative, 8 hour",+
same,MBC test growth score,"[3]; 30% preservative, 24 hour",+
same,MBC test growth score,"[3]; 30% preservative, 48 hour",+
same,MBC test growth score,"[3]; 30% preservative, 72 hour",+/−
same,MBC test growth score,"[3]; 40% preservative, 8 hour",+
same,MBC test growth score,"[3]; 40% preservative, 24 hour",+
same,MBC test growth score,"[3]; 40% preservative, 48 hour",+
same,MBC test growth score,"[3]; 40% preservative, 72 hour",+/−
same,MBC test growth score,"[3]; 50% preservative, 8 hour",+
same,MBC test growth score,"[3]; 50% preservative, 24 hour",+
same,MBC test growth score,"[3]; 50% preservative, 48 hour",+
same,MBC test growth score,"[3]; 50% preservative, 72 hour",+/−
same,MBC test growth score,"[3]; 60% preservative, 8 hour",+
same,MBC test growth score,"[3]; 60% preservative, 24 hour",+
same,MBC test growth score,"[3]; 60% preservative, 48 hour",+
same,MBC test growth score,"[3]; 60% preservative, 72 hour",+/−
same,MBC test growth score,"[3]; 70% preservative, 8 hour",+
same,MBC test growth score,"[3]; 70% preservative, 24 hour",+
same,MBC test growth score,"[3]; 70% preservative, 48 hour",+
same,MBC test growth score,"[3]; 70% preservative, 72 hour",+/−
same,MBC test growth score,"[3]; 80% preservative, 8 hour",+
same,MBC test growth score,"[3]; 80% preservative, 24 hour",+
same,MBC test growth score,"[3]; 80% preservative, 48 hour",+
same,MBC test growth score,"[3]; 80% preservative, 72 hour",+/−
same,MBC test growth score,"[3]; 90% preservative, 8 hour",+
same,MBC test growth score,"[3]; 90% preservative, 24 hour",+
same,MBC test growth score,"[3]; 90% preservative, 48 hour",+
same,MBC test growth score,"[3]; 90% preservative, 72 hour",+/−
same,MBC test growth score,"[3]; 100% preservative, 8 hour",+
same,MBC test growth score,"[3]; 100% preservative, 24 hour",+
same,MBC test growth score,"[3]; 100% preservative, 48 hour",+
same,MBC test growth score,"[3]; 100% preservative, 72 hour",+/−
